In one assay the target is TLR2 (Homo sapiens, UniProt O60603). Put plainly: TLR2 binding assay (ELISA plate). Also on record: purchased R&D Systems. As to conditions: for TLR2 binding at the highest concentration tested: peptide 200 μg/ml; for soluble protein binding to coated TLR2: TLR2 coated 2 μg/ml, protein 0-20 μg/ml, anti-HA detection.
Assay [1] concerns PBMC. Put plainly: Peptide binding to and penetration of PBMC, flow cytometry. The assay is classed as cell-based, human. To be noted: for intracellular pool / cell penetration (CPP activity) in PBMC / CPP activity compared with NCL-P2: 1 hr at 4° C.; for intracellular pool / cell penetration (CPP activity) in PBMC: fixed/permeabilized, streptavidin-AF488; for CPP activity compared with P2+G / CPP activity compared with NCL-P2: PBMC; for CPP activity compared with P2+G: 1 hr at 4° C. and 37° C., MFI; for CPP activity compared with NCL-P2: peptide 200 μg/ml. On the procedure: PBMC re-suspended in 100 μl macrophage serum free media (3×10^6/ml) were incubated with different peptides (200 μg/ml). PBMC (100 μl) were incubated with the peptides for 1 hr at 37° C. or 4° C. Cells were washed twice in 2% FBS/PBS and incubated with streptavidin-AF488 and Zombie (NIR) Fixable viability stain-APC-Cy7 for 30 min at 4° C. Cells were then fixed with 1% PFA for 30 min at room temperature and analysed using the Fortessa analyser (BD). In some experiments, PBMC were, after incubation with peptides, incubated with Zombie (NIR) Fixable viability stain (APC-Cy7) for 30 min at 4° C. Cells were then fixed and permeabilized with BD CYTOFIX/CYTOPERM™ Kit for 20 min at 4° C., and then incubated with streptavidin-AF488 for 30 min at 4° C. In some experiments, PBMC were, after incubation with the peptides, stained with fluorescent mouse antibodies specific for monocytes (CD14/BV711), T cells (CD3/PerCP-Cy5-5) and B cells (CD19/Pacific blue). Cells were then stained with Zombie (NIR) Fixable viability stain-APC-Cy7 and streptavin-AF488, with or without membrane permeabilization. In these experiments, monocytes, T cells and B cells were separately gated to detect surface peptide binding and intracellular peptide penetration.
(In general: Flow cytometry measures light scatter and fluorescence of single cells or particles in a stream.)

Assay [2] has as its system PBMC. Put plainly: PBMC activation, TNFα and IL-1β ELISA. The assay is classed as cell-based, human. To be noted: for TNFα induction from PBMC by known CPPs / TNFα production from PBMC: 24 hr; for TNFα induction from PBMC by known CPPs: ELISA; for adjuvant (alarmin) activity compared with NCL-P2+G / adjuvant (alarmin) activity compared with NCL-P2: PBMC stimulated 24 hr; for adjuvant (alarmin) activity compared with NCL-P2+G: TNFα by ELISA; for adjuvant (alarmin) activity compared with NCL-P2: TNFα in media; for TNFα production from PBMC: recombinant protein coated on plates. On the procedure: Buffy coat fractions were obtained from healthy blood donors at the Singapore Health Sciences Authority, with Institutional ethics approval, and PBMC were isolated using Ficoll-Paque (GE Healthcare). To isolate monocytes, PBMC were re-suspended to 1×10^7 cells/ml in the RPMI medium contained 5% (v/v) BCS and incubated for 1 hr in T75 flasks (20 ml/flask). Monocytes that adhered were harvested. To culture macrophages and DC [Cao, W., et al., Blood 107: 2777-2785, (2006), incorporated herein by reference], monocytes were resuspended to 1×10^6 cells/ml and cultured in 6-well plates (2 ml/well). Macrophages were cultured by adding M-CSF to 20 ng/ml and DC were cultured with 20 ng/ml GM-CSF and 40 ng/ml IL-4. M-CSF, GM-CSF and IL-4 were obtained from R&D Systems (Mineapolis, Minn.). Cells were cultured for 6 days with half of the media being replenished every two days.
Purified proteins in PBS (30 μg/ml) were coated in triplicates in 96-well plates (50 μl/well) for 12 hr and PBMC (3×10^6 cells/ml), monocytes (1×10^6 cells/ml), macrophages (0.5×10^6 cells/ml) or DC (0.5×10^6 cells/ml) were re-suspended in macrophage serum-free medium containing penicillin and streptomycin and cultured for 24 hr in these plates at 100 μl/well. Where TLR ligands were used to stimulate these cells, they were added to the media: LPS (500 ng/ml for DC and macrophages and 10 ng/ml for PMBC and monocytes, InvivoGen), flagellin (1 μg/ml, InvivoGen), lipoteichic acid (LTA, 10 μg/ml). Cell activation was determined by measuring TNFα and IL-1β in the culture media using ELISA kits (Invitrogen).
On the technique in general: ELISA stands for enzyme-linked immunosorbent assay.

The source of these data is patent US20230257429A1, “PEPTIDE ADJUVANT FOR ITS THERAPEUTIC APPLICATIONS IN VIRAL AND TUMOUR VACCINE DEVELOPMENT AND CANCER IMMUNOTHERAPY AND AUTOIMMUNE DISEASE DIAGNOSIS AND TREATMENTS” (National University of Singapore, priority 2020, published 2023).

Entries after “also recorded” stand apart in the source; their conditions may differ.

Sequence of TLR2 (O60603 21-590 limits assumed): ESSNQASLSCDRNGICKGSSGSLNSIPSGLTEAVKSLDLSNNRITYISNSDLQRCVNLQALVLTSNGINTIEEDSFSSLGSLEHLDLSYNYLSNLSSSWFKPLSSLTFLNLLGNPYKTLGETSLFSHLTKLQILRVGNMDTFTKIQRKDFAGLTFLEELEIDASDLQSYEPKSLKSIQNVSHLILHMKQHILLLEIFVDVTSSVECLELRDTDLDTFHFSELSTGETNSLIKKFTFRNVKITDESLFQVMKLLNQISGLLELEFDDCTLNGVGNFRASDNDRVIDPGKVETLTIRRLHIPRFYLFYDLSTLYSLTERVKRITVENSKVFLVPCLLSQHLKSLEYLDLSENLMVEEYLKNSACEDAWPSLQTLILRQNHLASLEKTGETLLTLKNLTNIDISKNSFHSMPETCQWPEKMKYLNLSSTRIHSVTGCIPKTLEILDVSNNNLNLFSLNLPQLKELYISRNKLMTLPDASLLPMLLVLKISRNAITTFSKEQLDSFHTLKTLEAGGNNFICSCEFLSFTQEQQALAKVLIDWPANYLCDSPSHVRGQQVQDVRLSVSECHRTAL

As to “NCL-P4: peptide representing the N-terminal half of NCL-P6 (RGGFGGRGGG; NCL-P4)”, in the assay with TLR2, the “TLR2 binding at the highest concentration tested” value is “no TLR2 binding”. Further, in the assay with PBMC [1], the “intracellular pool / cell penetration (CPP activity) in PBMC” value (“intracellular pool / cell penetration” for short) was “all lacked cell penetration”.
Consider “NCL(649)-HA: NCL-HA C-terminal deletion mutant which lacks the GAR/RGG region”, for which, in the assay with TLR2, the “soluble protein binding to coated TLR2” value is on record as “not observed”. Also, in the assay with TLR2 (protein coated 10 μg/ml, TLR2 0.375-6.0 μg/ml), the “His-tagged TLR2 binding to coated protein” value is on record as “no binding”.
As to “NCL-P7: short peptide corresponding to the non-repetitive C-terminal end of the 48-residue GAR/RGG region (FRGGRGG; NCL-P7)”, the “intracellular pool / cell penetration” value in the assay on PBMC [1] was “all lacked cell penetration”.
“RRRRNRTRRNRRRVRRRRRNRTRRNRRRVR (2xCPP4) [2×CPP4, reference compound]”: in the assay with PBMC [2] (PBMC 24 hr, TNFα ELISA), the “alarmin activity compared with CPP4” value is given as “Little increase in alarmin activity”.
Turning to “GWTLNSAGYLLGKINLKALAALAKKIL [CPP6, reference compound]”, in the assay with PBMC [2], the “TNFα induction from PBMC by known CPPs” value is given as “No significant TNFα”.
For “GGFGPRGGPRGPRGGFGPRGPRGGFGPRGGFRGPRGP (NCL-P2+G(G/P))”, the “adjuvant (alarmin) activity compared with NCL-P2+G” value (“adjuvant … compared with NCL-P2+G” below) with PBMC [2] is recorded as “lost the alarmin activity”. For the same molecule, the “CPP activity compared with P2+G” value in the assay with PBMC [1] is “completely lost the CPP activity”.
As to “NCL-P5: peptide representing the C-terminal half of NCL-P6 (RGGRGGFGGRG; NCL-P5)”, the “TLR2 binding at the highest concentration tested” value with TLR2 is on record as “low level of TLR2 binding”. For the same molecule, the “intracellular pool / cell penetration” value in the assay with PBMC [1] was “all lacked cell penetration”.
In the case of “MVTVLFRRLRIRRACGPPRVRV (CPP7) [reference compound]”, in the assay on PBMC [2], the “TNFα induction from PBMC by known CPPs” value was “No significant TNFα”.
Turning to “GGFGARGGARGARGGFGARGARGGFGARGGFRGARGA (NCL-P2+G(G/A))”, in the assay on PBMC [2], the “adjuvant … compared with NCL-P2+G” value is “lost the alarmin activity”. Further, the “CPP activity compared with P2+G” value in the assay on PBMC [1] is “completely lost the CPP activity”.
“GGYGGRGGGRGGRGGYGGRGRGGYGGRGGYRGGRGG (NCL-P2F/Y)”: the “adjuvant (alarmin) activity compared with NCL-P2” value in the assay with PBMC [2] is given as “alarmin activity was diminished; also recorded: no significant alarmin activity”; with PBMC [2] (listed as SEQ ID NO: 23) it was “markedly diminished its adjuvant activity”. Besides, the “CPP activity compared with NCL-P2” value in the assay on PBMC [1] is “gained significant CPP activity; also recorded: have cell-penetrating activity”.
In the case of “NCL(522)-HA: NCL-HA C-terminal deletion mutant of 522 residues which lacks the GAR/RGG region”, the “soluble protein binding to coated TLR2” value with TLR2 is reported as “not observed”.
For the molecule “GGIGGRGGGRGGRGGIGGRGGRGGIGGRGGIRGGRGG (NCL-P2+G(F/I))”, the “adjuvant … compared with NCL-P2+G” value in the assay on PBMC [2] was “retained the alarmin activity”. Further, in the assay with PBMC [1], the “CPP activity compared with P2+G” value is given as “acquired higher CPP activities” and the “CPP activity compared with NCL-P2” value is on record as “slightly increased their CPP activities”.
With “GGRGGRGGGRGGRGGRGGRGRGGRGGRGGRRGGRGG (NCL-P2F/R)”, the “adjuvant (alarmin) activity compared with NCL-P2” value in the assay on PBMC [2] was “losing significant alarmin activity; also recorded: no significant alarmin activity”; in the assay on PBMC [2] (listed as P2F/R), “reduced alarmin activity; also recorded: diminished alarmin activities”; in the assay on PBMC [2] (listed as SEQ ID NO: 21), “substantially reduced its adjuvant activity”. Further, in the assay on PBMC [1], the “increase in CPP activity compared with NCL-P2” value is “approx. 8 fold”. For the same molecule, the “CPP activity compared with NCL-P2” value in the assay with PBMC [1] is recorded as “gained substantial CPP activity; also recorded: have cell-penetrating activity”; with PBMC [1] (listed as P2F/R), “strong CPP”.
With “GGFGGKGGGKGGKGGFGGKGKGGFGGKGGFKGGKGG (NCL-P2R/K)”, the entries for the “adjuvant (alarmin) activity compared with NCL-P2” value with PBMC [2], in the assay on PBMC [2] (listed as R/K mutant of NCL-P2) and in the assay on PBMC [2] (listed as SEQ ID NO: 20) were “lost CPP as well as alarmin activity”, “lost its adjuvant activity” and “completely abolished its adjuvant activity”, respectively. In the assay on PBMC [1], the “CPP activity compared with NCL-P2” value is on record as “lost CPP as well as alarmin activity”. Also, the “PBMC penetration at 37° C. or 4° C.” value in the assay on PBMC [1] (compared with NCL-P2) is listed as “no longer penetrates PBMC”.
As to “GGWGGRGGGRGGRGGWGGRGRGGWGGRGGWRGGRGG (NCL-P2F/W)”, the “adjuvant (alarmin) activity compared with NCL-P2” value with PBMC [2] is “lost the alarmin activity; also recorded: no significant alarmin activity”; with PBMC [2] (listed as SEQ ID NO: 24) it was “markedly diminished its adjuvant activity”. In the assay on PBMC [1], the “CPP activity compared with NCL-P2” value was “retained the CPP activity; also recorded: have cell-penetrating activity”.
Take “GGLGGRGGGRGGRGGLGGRGGRGGLGGRGGLRGGRGG (GGLGRRGGGRGGRGGLGGRGGRGGLGGRGGLRGGRGG; NCL-P2+G(F/L))”: the “adjuvant … compared with NCL-P2+G” value in the assay on PBMC [2] is “stronger alarmin activity than P2+G; also recorded: retained the alarmin activity”. In the assay with PBMC [1], the “CPP activity compared with P2+G” value is reported as “acquired higher CPP activities” and the “CPP activity compared with NCL-P2” value was “slightly increased their CPP activities”.
Take “GGFGGRGGGRGGRGGFGGRGGRGGFGGRGGFGGRGGRGG (NCL-P2+3G)”: in the assay on PBMC [2], the “adjuvant … compared with NCL-P2+G” value is “no further improvement in adjuvant activity and instead it slightly reduced the high adjuvant activity”; the “adjuvant (alarmin) activity compared with NCL-P2” value is “significantly higher alarmin activity”. Also, the “CPP activity compared with NCL-P2” value with PBMC [1] is given as “slightly higher CPP activity”. Also, in the assay on PBMC [1] (listed as P2+3G), the “CPP activity compared with NCL-P2” value is “slightly increased their CPP activities”.
In the case of “GGFGGRGGRGGFGGRGGRGGFGGRGGRGGFGGRGGRGG (NCL-P2+2G)”, the “adjuvant (alarmin) activity compared with NCL-P2” value in the assay on PBMC [2] is reported as “diminished rather than increased adjuvant activity; also recorded: slightly reduced alarmin activity”.

B1: GAR1-HA: recombinant GAR1 with a C-terminal HA tag (protein, UniProt Q9NY12 1-217, looked up)
H/ACA ribonucleoprotein …: MSFRGGGRGGFNRGGGGGGFNRGGSSNHFRGGGGGGGGGNFRGGGRGGFGRGGGRGGFNKGQDQGPPERVVLLGEFLHPCEDDIVCKCTTDENKVPYFNAPVYLENKEQIGKVDEIFGQLRDFYFSVKLSENMKASSFKKLQKFYIDPYKLLPLQRFLPRPPGEKGPPRGGGRGGRGGGRGGGGRGGGRGGGFRGGRGGGGGGFRGGRGGGFRGRGH
modifications: C-terminal HA tag
On to B1, for which the “TNFα production from PBMC” value in the assay on PBMC [2] was “indeed activated PBMC”.

B2: FBRL: recombinant fibrillarin with C-terminal HA tag (protein)
chain: MKPGFSPRGGGFGGRGGFGDRGGRGGRGGFGGGRGRGGGFRGRGRGGGGGGGGGGGGGRGGGGFHSGGNRGRGRGGKRGNQSGKNVMVEPHRHEGVFICRGKEDALVTKNLVPGESVYGEKRVSISEGDDKIEYRAWNPFRSKLAAAILGGVDQIHIKPGAKVLYLGAASGTTVSHVSDIVGPDGLVYAVEFSHRSGRDLINLAKKRTNIIPVIEDARHPHKYRMLIAMVDVIFADVAQPDQTRIVALNAHTFLRNGGHFVISIKANCIDSTASAEAVFASEVKKMQQENMKPQEQLTLEPYERDHAVVVGVYRPPPKVKN
modifications: C-terminal HA tag; FBRL
In the case of B2, the “TNFα production from PBMC” value in the assay on PBMC [2] is on record as “strongly induced TNFα production”.
